Experimental data published in patent US12480920B2, “Method for the detection and quantification of fosfomycin, impurities and degradation products thereof” (MEITHEAL PHARMACEUTICALS, INC., priority 2019, dated 2025).

Test: Stability study of fosfomycin for injection drug product: analysis of impurities by HILIC-HPLC with CAD detection
Format: physicochemical
Details: fosfomycin for injection drug product (vials, 7.92 g fosfomycin disodium + 150 mg succinic acid), 25° C. and 60% RH; for wt % of impurities at time points (months): 12: 12 months; for wt % of impurities at time points (months): 0: 0 months; for wt % of impurities at time points (months): 1: 1 month; for wt % of impurities at time points (months): 3: 3 months; for wt % of impurities at time points (months): 6: 6 months; for wt % of impurities at time points (months): 9: 9 months
Method: As part of a stability study of fosfomycin for injection drug product, analysis of impurities was performed according to the method of the present invention, using HILIC-HPLC method with CAD detection, as disclosed, for example, in example 2.
The sample subjected to the stability test was fosfomycin for injection drug product, namely, vials containing sterile dry powder admixture of 7.92 g of fosfomycin disodium and 150 mg of succinic acid.
The samples were kept at 25° C. and 60% RH. Analysis of impurities was performed at the following time points: 0, 1, 3, 6, 9 and 12 months. Impurities are reported at weight percentage 0.05% (limit of detection of the method). “Dtd.” in the table stands for “detected”, meaning that the impurity is detected but is under the limit of detection (0.05 wt %). ND stands for “not detected”.

SMILES | wt % of impurities at time points (months): 12 | wt % of impurities at time points (months): 0 | wt % of impurities at time points (months): 1 | wt % of impurities at time points (months): 3 | wt % of impurities at time points (months): 6 | wt % of impurities at time points (months): 9
CC(OP(=O)(O)C1OC1C)C(O)P(=O)(O)O (stereo not drawn) [Dimer3] | Dtd. (“Dtd.” in the table stands for “detected”, meaning that the impurity is detected but is under the limit of detection (0.05 wt %)) |  |  |  |  | 
COC(C(C)O)P(=O)(O)O (stereo not drawn) [Methanol adduct] | 0.12 wt % | 0.07 wt % | 0.18 wt % | 0.13 wt % | 0.35 wt % | Dtd. (“Dtd.” in the table stands for “detected”, meaning that the impurity is detected but is under the limit of detection (0.05 wt %))
C=CCP(=O)(O)O [Olefinic acid, 2-propenyl phosphonic acid] | 0.40 wt % | 0.40 wt % | 0.46 wt % | 0.39 wt % | 0.42 wt % | 0.36 wt %
CC(OP(=O)(O)C1OC1C)C(O)P(=O)(O)O (stereo not drawn) [Dimer2] | 0.11 wt % | 0.05 wt % | Dtd. (“Dtd.” in the table stands for “detected”, meaning that the impurity is detected but is under the limit of detection (0.05 wt %)) | 0.07 wt % | 0.10 wt % | 0.08 wt %
CC(OP(=O)(O)C1OC1C)C(O)P(=O)(O)O (stereo not drawn) [Dimer1] | 0.09 wt % | 0.05 wt % | 0.06 wt % | 0.05 wt % | 0.08 wt % | 0.06 wt %
CC(OP(=O)(OC(C)C(O)P(=O)(O)O)C1OC1C)C(O)P(=O)(O)O (stereo not drawn) [Trimer] | Dtd. (“Dtd.” in the table stands for “detected”, meaning that the impurity is detected but is under the limit of detection (0.05 wt %)) | Dtd | 0.07 wt % |  | Dtd. (“Dtd.” in the table stands for “detected”, meaning that the impurity is detected but is under the limit of detection (0.05 wt %)) | Dtd. (“Dtd.” in the table stands for “detected”, meaning that the impurity is detected but is under the limit of detection (0.05 wt %))
CC(O)C(O)P(=O)([O-])[O-].[Na+].[Na+] (stereo not drawn) [Impurity A, (1,2-dihydroxypropyl)phosphonate] | 0.10 wt % | Dtd. (“Dtd.” in the table stands for “detected”, meaning that the impurity is detected but is under the limit of detection (0.05 wt %)) | 0.06 wt % | 0.07 wt % | 0.09 wt % | 0.11 wt %
CCOC(C(C)O)P(=O)(O)O (stereo not drawn) [Ethanol adduct] | Dtd. (“Dtd.” in the table stands for “detected”, meaning that the impurity is detected but is under the limit of detection (0.05 wt %)) |  |  | Dtd. (“Dtd.” in the table stands for “detected”, meaning that the impurity is detected but is under the limit of detection (0.05 wt %)) |  | Dtd. (“Dtd.” in the table stands for “detected”, meaning that the impurity is detected but is under the limit of detection (0.05 wt %))
